Experimental data: patent US8952021B2, “Compounds for the prevention and treatment of cardiovascular disease” (Resverlogix Corp., priority 2009, dated 2015)

system: ApoA-I mRNA; test: Quantification of ApoA-I mRNA in HepG2 cells (real-time PCR); type: cell-based; set-up: key: Active: An active compound was defined as one that caused a ≧20% increase in ApoA-I mRNA at a concentration less than or equal to 100 μM; conditions: fold induction relative to DMSO control, concentration less than or equal to 100 μM
Protocol: In this example, ApoA-I mRNA in tissue culture cells was quantitated to measure the transcriptional up-regulation of ApoA-I when treated with a compound of the invention.
HepG2 cells (approximately 2×10^5 per well) were placed in a 24-well plate in approximately 400 μL MEM, supplemented with 0.5% (v/v) FBS, 24 h before addition of the compound of interest. At time of harvesting, the spent media was removed from the HepG2 cells and immediately placed on ice (for immediate use) or at −80° C. (for future use) in ApoA-I and albumin ELISAs. The cells remaining in the plate wells were rinsed in 200 μL PBS. PBS was carefully removed to avoid removing any loosely attached cells.
Once the PBS was removed, 85 μL cell lysis solution was added the cells in each well and incubated for 5-10 minutes at room temperature, to allow for complete cell lysis and detachment. mRNA was then prepared using the “mRNA Catcher PLUS plate” from Invitrogen, according to the protocol supplied. After the last wash, as much wash buffer as possible was aspirated without allowing the wells to dry. Elution Buffer (E3, 80 μL) was then added to each well. mRNA was then eluted by incubating the mRNA Catcher PLUS plate with Elution Buffer for 5 minutes at 68° C. and then immediately placing the plate on ice.
The eluted mRNA isolated was then used in a one-step real-time […] reaction, using components of the Ultra Sense Kit together with Applied Biosystems primer-probe mixes. Real-time PCR data was analyzed, using the Ct values, to determine the fold induction of each unknown sample, relative to the control (that is, relative to the control for each independent DMSO concentration).
An active compound was defined as one that caused a ≧20% increase in ApoA-I mRNA at a concentration less than or equal to 100 μM.

SMILES	Effect on ApoA-I mRNA levels
CCC(C)c1ccc(-n2c(-c3ccc4[nH]c(CO)cc4c3)nc3ccccc3c2=O)cc1 (stereo not drawn) [Example 82, 3-(4-sec-butylphenyl)-2-(2-(hydroxymethyl)-1H-indol-5-yl)quinazolin-4(3H)-one]	Active
Cc1cc(-c2nc3ccccc3c(=O)n2-c2ccc(NS(C)(=O)=O)cc2)cc(C)c1OCCO [Example 29, N-(4-(2-(4-(2-hydroxyethoxy)-3,5-dimethylphenyl)-4-oxoquinazolin-3(4H)-yl)phenyl)methanesulfonamide]	Active
O=c1c2ccccc2nc(-c2ccc(N3CCCCC3)nc2)n1-c1ccc(Cl)cc1 [Example 48, 3-(4-chlorophenyl)-2-(6-(piperidin-1-yl)pyridin-3-yl)quinazolin-4(3H)-one]	Active
CCC(C)c1ccc(-n2c(-c3cccnc3)nc3ccccc3c2=O)cc1 (stereo not drawn) [Example 35, 3-(4-sec-butylphenyl)-2-(pyridin-3-yl)quinazolin-4(3H)-one]	Active
CN(C)c1ccc(-n2c(-c3ccc4[nH]ccc4c3)nc3ccccc3c2=O)cc1 [Example 80, 3-(4-(dimethylamino)phenyl)-2-(1H-indol-5-yl)quinazolin-4(3H)-one]	Active
CCC(C)c1ccc(-n2c(-c3ccc(F)nc3)nc3ccccc3c2=O)cc1 (stereo not drawn) [Example 51, 3-(4-sec-butylphenyl)-2-(6-fluoropyridin-3-yl)quinazolin-4(3H)-one]	Active
CCC(C)c1ccc(-n2c(-c3cncnc3)nc3ccccc3c2=O)cc1 (stereo not drawn) [Example 45, 3-(4-sec-butylphenyl)-2-(pyrimidin-5-yl)quinazolin-4(3H)-one]	Active
CCC(C)c1ccc(-n2c(-c3ccc4[nH]ncc4c3)nc3ccccc3c2=O)cc1 (stereo not drawn) [Example 72, 3-(4-sec-butylphenyl)-2-(1H-indazol-5-yl)quinazolin-4(3H)-one]	Active
CCC(C)c1ccc(-n2c(-c3ccc(Cl)nc3)nc3ccccc3c2=O)cc1 (stereo not drawn) [Example 39, 3-(4-sec-butylphenyl)-2-(6-chloropyridin-3-yl)quinazolin-4(3H)-one]	Active
CCC(C)c1ccc(-n2c(-c3cncc(Br)c3)nc3ccccc3c2=O)cc1 (stereo not drawn) [Example 57, 2-(5-bromopyridin-3-yl)-3-(4-sec-butylphenyl)quinazolin-4(3H)-one]	Active
CCC(C)c1ccc(-n2c(-c3ccc(OCCO)c(C)c3)nc3ccccc3c2=O)cc1 (stereo not drawn) [Example 33, 3-(4-sec-butylphenyl)-2-(4-(2-hydroxyethoxy)-3-methylphenyl)quinazolin-4(3H)-one]	Active
Cc1cc(-c2nc3ccccc3c(=O)n2-c2ccc(C3CCCCC3)cc2)cc(C)c1OCCO [Example 26, 3-(4-cyclohexylphenyl)-2-(4-(2-hydroxyethoxy)-3,5-dimethylphenyl)quinazolin-4(3H)-one]	Active
COc1ccc(S(=O)(=O)n2ccc3cc(-c4nc5ccccc5c(=O)n4-c4ccc(Cl)cc4)cnc32)cc1 [Example 78, 3-(4-chlorophenyl)-2-(1-(4-methoxyphenylsulfonyl)-1H-pyrrolo[2,3-b]pyridin-5-yl)quinazolin-4(3H)-one]	Active
O=c1c2ccccc2nc(-c2cnc3c(ccn3S(=O)(=O)c3ccc(F)cc3)c2)n1-c1ccc(Cl)cc1 [Example 79, 3-(4-chlorophenyl)-2-(1-(4-fluorophenylsulfonyl)-1H-pyrrolo[2,3-b]pyridin-5-yl)quinazolin-4(3H)-one]	Active
Cc1cc(-c2nc3ccccc3c(=O)n2-c2ccc(N(C)C)cc2)cc(C)c1OCCO [Example 32, 3-(4-(dimethylamino)phenyl)-2-(4-(2-hydroxyethoxy)-3,5-dimethylphenyl)quinazolin-4(3H)-one]	Active
O=c1c2ccccc2nc(-c2ccc(Cl)nc2)n1-c1ccc(C2CC2)cc1 [Example 70, 2-(6-chloropyridin-3-yl)-3-(4-cyclopropylphenyl)quinazolin-4(3H)-one]	Active
CSc1ccc(-n2c(-c3ccc(C)nc3)nc3ccccc3c2=O)cc1 [Example 64, 2-(6-methylpyridin-3-yl)-3-(4-(methylthio)phenyl)quinazolin-4(3H)-one]	Active
O=c1c2ccccc2nc(-c2ccc3[nH]ccc3c2)n1-c1ccc(OC(F)(F)F)cc1 [Example 76, 2-(1H-indol-5-yl)-3-(4-(trifluoronnethoxy)phenyl)quinazolin-4(3H)-one]	Active

SMILES	Effect on ApoA-I mRNA levels
CCC(C)c1ccc(-n2c(-c3ccc(N(CC)CC)nc3)nc3ccccc3c2=O)cc1 (stereo not drawn) [Example 44, 3-(4-sec-butylphenyl)-2-(6-(diethylamino)pyridin-3-yl)quinazolin-4(3H)-one]	Active
Cc1ccc(-c2nc3ccccc3c(=O)n2-c2ccc(C(C)C)cc2)cn1 [Example 65, 3-(4-isopropylphenyl)-2-(6-methylpyridin-3-yl)quinazolin-4(3H)-one]	Active
O=c1c2ccccc2nc(-c2cncc(-c3ccccc3)c2)n1-c1ccc(Cl)cc1 [Example 60, 3-(4-chlorophenyl)-2-(5-phenylpyridin-3-yl)quinazolin-4(3H)-one]	Active
CCC(C)c1ccc(-n2c(-c3ccc4[nH]ccc4c3)nc3ccccc3c2=O)cc1 (stereo not drawn) [Example 74, 3-(4-sec-butylphenyl)-2-(1H-indol-5-yl)quinazolin-4(3H)-one]	Active
CCC(C)c1ccc(-n2c(-c3ccc(N4CCCCC4)nc3)nc3ccccc3c2=O)cc1 (stereo not drawn) [Example 49, 3-(4-sec-butylphenyl)-2-(6-(piperidin-1-yl)pyridin-3-yl)quinazolin-4(3H)-one]	Active
Cc1ccc(-c2nc3ccccc3c(=O)n2-c2ccc(N(C)C)cc2)cn1 [Example 69, 3-(4-(dimethylamino)phenyl)-2-(6-methylpyridin-3-yl)quinazolin-4(3H)-one]	Active
Cc1ccc(-c2nc3ccccc3c(=O)n2-c2ccc(C3CCCC3)cc2)cn1 [Example 62, 3-(4-cyclopentylphenyl)-2-(6-methylpyridin-3-yl)quinazolin-4(3H)-one]	Active
Cc1cc(-c2nc3ccccc3c(=O)n2-c2ccc(NC(=O)C(C)C)cc2)cc(C)c1OCCO [Example 24, N-(4-(2-(4-(2-hydroxyethoxy)-3,5-dimethylphenyl)-4-oxoquinazolin-3(4H)-yl)phenyl)isobutyramide]	Active
CCC(C)c1ccc(-n2c(-c3ccc(C)nc3)nc3ccccc3c2=O)cc1 (stereo not drawn) [Example 46, 3-(4-sec-butylphenyl)-2-(6-methylpyridin-3-yl)quinazolin-4(3H)-one]	Active
CCC(C)c1ccc(-n2c(-c3ccc(Br)nc3)nc3ccccc3c2=O)cc1 (stereo not drawn) [Example 42, 2-(6-bromopyridin-3-yl)-3-(4-sec-butylphenyl)quinazolin-4(3H)-one]	Active
CCC(C)c1ccc(-n2c(-c3ccc(OC)nc3)nc3ccccc3c2=O)cc1 (stereo not drawn) [Example 40, 3-(4-sec-butylphenyl)-2-(6-methoxypyridin-3-yl)quinazolin-4(3H)-one]	Active
Cc1cc(-c2nc3ccccc3c(=O)n2-c2ccc(N)cc2)cc(C)c1OCCO [Example 28, 3-(4-aminophenyl)-2-(4-(2-hydroxyethoxy)-3,5-dimethylphenyl)quinazolin-4(3H)-one]	Active
CCC(C)c1ccc(-n2c(-c3cncc(F)c3)nc3ccccc3c2=O)cc1 (stereo not drawn) [Example 37, 3-(4-sec-butylphenyl)-2-(5-fluoropyridin-3-yl)quinazolin-4(3H)-one]	Active
CCC(C)c1ccc(-n2c(-c3cc(C)c(OCCO)c(C)c3)nc3cc(F)ccc3c2=O)cc1 (stereo not drawn) [Example 4, 3-(4-sec-butylphenyl)-7-fluoro-2-(4-(2-hydroxyethoxy)-3,5-dimethylphenyl)quinazolin-4(3H)-one]	Active
CCN(CC)c1cncc(-c2nc3ccccc3c(=O)n2-c2ccc(Cl)cc2)c1 [Example 61, 3-(4-chlorophenyl)-2-(5-(diethylamino)pyridin-3-yl)quinazolin-4(3H)-one]	Active
CCC(C)c1ccc(-n2c(-c3ccc(N4CCOCC4)nc3)nc3ccccc3c2=O)cc1 (stereo not drawn) [Example 71, 3-(4-sec-butylphenyl)-2-(6-morpholinopyridin-3-yl)quinazolin-4(3H)-one]	Active
CC(=O)Nc1ccc(-n2c(-c3cc(C)c(OCCO)c(C)c3)nc3ccccc3c2=O)cc1 [Example 23, N-(4-(2-(4-(2-hydroxyethoxy)-3,5-dimethylphenyl)-4-oxoquinazolin-3(4H)-yl)phenyl)acetamide]	Active
O=c1c2ccccc2nc(-c2ccc(Cl)nc2)n1-c1ccc(Cl)cc1 [Example 38, 3-(4-chlorophenyl)-2-(6-chloropyridin-3-yl)quinazolin-4(3H)-one]	Active
